In ChEMBL document CHEMBL4765419, “Design, synthesis and bioactivity evaluation of novel arylalkene-amide derivatives as dual-target antifungal inhibitors” (Eur J Med Chem, 2020):
Activity calls are given as the source filed them. The calls are words filed in the database; no cut-off is given here.

What was measured:
Candida tropicalis = assay: Antifungal activity against Candida tropicalis assessed as inhibition of microbial growth by two fold broth microdilution method; assay type: functional
Nakaseomyces glabratus = assay: Antifungal activity against Candida glabrata assessed as inhibition of microbial growth by two fold broth microdilution method; assay type: functional
Candida albicans [1] = assay: Antifungal activity against Candida albicans assessed as inhibition of microbial growth by two fold broth microdilution method; assay type: functional
Aspergillus fumigatus = assay: Antifungal activity against Aspergillus fumigatus assessed as inhibition of microbial growth by two fold broth microdilution method; assay type: functional
Pichia kudriavzevii = assay: Antifungal activity against Candida krusei assessed as inhibition of microbial growth by two fold broth microdilution method; assay type: functional
Candida albicans [2] = assay: Antifungal activity against fluconazole-resistant Candida albicans 632 assessed as inhibition of microbial growth by two fold broth microdilution method; assay type: functional
Candida albicans [3] = assay: Antifungal activity against fluconazole-resistant Candida albicans CaR assessed as inhibition of microbial growth by two fold broth microdilution method; assay type: functional
Candida albicans [4] = assay: Antifungal activity against fluconazole-resistant Candida albicans 901 assessed as inhibition of microbial growth by two fold broth microdilution method; assay type: functional
Candida albicans [5] = assay: Antifungal activity against Candida albicans ATCC SC5314 assessed as decrease in fungal cell density by polarizing microscopy; assay type: functional, organism-based
Candida albicans [6] = assay: Antifungal activity against fluconazole-resistant Candida albicans 17# assessed as inhibition of microbial growth by two fold broth microdilution method; assay type: functional
Candida albicans [7] = assay: Antifungal activity against fluconazole-resistant Candida albicans 904 assessed as inhibition of microbial growth by two fold broth microdilution method; assay type: functional
[8] = Toxicity in mouse infected with Candida albicans assessed as change in lung morphology administered via abdomen for 7 days by H and E staining based histological analysis; settings: in vivo, ip, 168 h, time 7 day
[9] = Stability in human plasma incubated for 120 mins; assay type: ADME, cell-free; settings: read-out: Stabilty
Candida albicans [10] = assay: Antifungal activity against Candida albicans ATCC SC5314 assessed as cell lysis at 4 ug/ml […] by TEM analysis; assay type: functional, organism-based; settings: dose 4.0 µg/ml
Candida albicans [11] = assay: Antifungal activity against Candida albicans ATCC SC5314 assessed as edema cavitation at 4 ug/ml incubated for 72 hrs by TEM analysis; assay type: functional, organism-based; settings: dose 4.0 µg/ml
[12] = Toxicity in mouse infected with Candida albicans assessed as change in heart morphology administered via abdomen for 7 days by H and E staining based histological analysis; settings: in vivo, ip, 168 h, time 7 day
Candida albicans [13] = assay: In vivo antifungal activity against Candida albicans infected in mouse assessed as reduction in tissue infection injected via abdomen for 7 days by H and E staining based histological analysis; assay type: functional, organism-based; settings: time 7.0 day
[14] = Hepatotoxicity in mouse infected with Candida albicans assessed as effect on alanine aminotransferase level in plasma administered via abdomen for 7 days (reference value: 102 +/-9.2 IU/L); assay type: toxicity; settings: ip, 168 h, time 7 day
[15] = Stability in human plasma incubated for 60 mins; assay type: ADME, cell-free; settings: read-out: Stabilty
Candida albicans SC5314 [16] = assay: Inhibition of SE/CYP51 in Candida albicans ATCC SC5314 assessed as lanosterol level at 4 ug/ml incubated for 16 hrs by LC/MS analysis (reference value: 6.62 %); design: scale not given: the % may be the effect or the level left; settings: dose 4.0 µg/ml
[17] = Toxicity in mouse infected with Candida albicans assessed as change in spleen morphology administered via abdomen for 7 days by H and E staining based histological analysis; settings: in vivo, ip, 168 h, time 7 day
Candida albicans SC5314 [18] = assay: Inhibition of SE/CYP51 in Candida albicans ATCC SC5314 assessed as unidentified sterol level at 4 ug/ml incubated for 16 hrs by LC/MS analysis (reference value: 7.03 %); design: scale not given: the % may be the effect or the level left; settings: dose 4.0 µg/ml
Candida albicans [19] = assay: Antifungal activity against Candida albicans ATCC SC5314 assessed as irregular cell structure at 4 ug/ml incubated for 72 hrs by TEM analysis; assay type: functional, organism-based; settings: dose 4.0 µg/ml
[20] = Toxicity in mouse infected with Candida albicans assessed as change in kidney morphology administered via abdomen for 7 days by H and E staining based histological analysis; settings: in vivo, ip, 168 h, time 7 day
Candida albicans [21] = assay: Antifungal activity against Candida albicans ATCC SC5314 assessed as nuclear membrane cleavage at 4 ug/ml incubated for 72 hrs by TEM analysis; assay type: functional, organism-based; settings: dose 4.0 µg/ml
Candida albicans [22] = assay: Antifungal activity against Candida albicans ATCC SC5314 assessed as loss of cell permeability at 4 ug/ml incubated for 72 hrs by TEM analysis; assay type: functional, organism-based; settings: dose 4.0 µg/ml
Candida albicans [23] = assay: Antifungal activity against Candida albicans ATCC SC5314 assessed as vesicles formation at 4 ug/ml incubated for 72 hrs by TEM analysis; assay type: functional, organism-based; settings: dose 4.0 µg/ml
[24] = Toxicity in mouse infected with Candida albicans assessed as change in liver morphology administered via abdomen for 7 days by H and E staining based histological analysis; settings: in vivo, ip, 168 h, time 7 day
Candida albicans [25] = assay: Antifungal activity against Candida albicans ATCC SC5314 assessed as leakage of endogenous substances at 4 ug/ml incubated for 72 hrs by TEM analysis; assay type: functional, organism-based; settings: dose 4.0 µg/ml
[26] = Hepatotoxicity in mouse infected with Candida albicans assessed as aspartate aminotransferase level in plasma administered via abdomen for 7 days (reference value: 109.4 +/-4.8 IU/L); assay type: toxicity; settings: ip, 168 h, time 7 day
[27] = Toxicity in mouse infected with Candida albicans assessed as change in body weight administered via abdomen for 7 days; settings: in vivo, ip, 168 h, time 7 day
Candida albicans SC5314 [28] = assay: Inhibition of SE/CYP51 in Candida albicans ATCC SC5314 assessed as ergosterol level at 4 ug/ml incubated for 16 hrs by LC/MS analysis (reference value: 79.43 %); design: scale not given: the % may be the effect or the level left; settings: dose 4.0 µg/ml
Candida albicans [29] = assay: In vivo antifungal activity against Candida albicans infected in mouse assessed as disappearance of infected positions injected via abdomen for 7 days by H and E staining based histological analysis; assay type: functional, organism-based; settings: time 7.0 day
Candida albicans [30] = assay: Antifungal activity against Candida albicans ATCC SC5314 assessed as disappearance of fungal cell boundaries at 4 ug/ml incubated for 72 hrs by TEM analysis; assay type: functional, organism-based; settings: dose 4.0 µg/ml
Candida albicans [31] = assay: In vivo antifungal activity against Candida albicans infected in mouse assessed as uniform cell distribution injected via abdomen for 7 days by H and E staining based histological analysis; assay type: functional, organism-based; settings: time 7.0 day
[32] = Renal toxicity in mouse infected with Candida albicans assessed as effect on blood urea nitrogen level administered via abdomen for 7 days (reference value: 6.7 +/-0.3 mmol/L); settings: in vivo, ip, 168 h, time 7 day
Candida albicans SC5314 [33] = assay: Inhibition of SE/CYP51 in Candida albicans ATCC SC5314 assessed as squalene level at 4 ug/ml incubated for 16 hrs by LC/MS analysis (reference value: 2.25 %); design: scale not given: the % may be the effect or the level left; settings: dose 4.0 µg/ml
Candida albicans [34] = assay: In vivo antifungal activity against Candida albicans infected in mouse assessed as disappearance of cell nuclear aggregation injected via abdomen for 7 days by H and E staining based histological analysis; assay type: functional, organism-based; settings: time 7.0 day
Candida albicans SC5314 [35] = assay: Inhibition of SE/CYP51 in Candida albicans ATCC SC5314 assessed as eburicol level at 4 ug/ml incubated for 16 hrs by LC/MS analysis (reference value: 4.67 %); design: scale not given: the % may be the effect or the level left; settings: dose 4.0 µg/ml

## O=C(/C=C/c1ccc2ccccc2c1)NC(Cn1ccnc1)C(=O)NCc1ccccc1 (stereo not given)
Candida tropicalis
  MIC: 0.5 µg/mL
Nakaseomyces glabratus
  MIC: 0.5 µg/mL
Candida albicans [1]
  MIC: 2 µg/mL
Aspergillus fumigatus
  MIC: 8 µg/mL
Pichia kudriavzevii
  MIC: 4 µg/mL

## O=C(/C=C/c1ccc2c(c1)OCCO2)NCC(=O)NCc1cccnc1
Candida tropicalis
  MIC: 2 µg/mL
Nakaseomyces glabratus
  MIC: 4 µg/mL
Candida albicans [1]
  MIC: 2 µg/mL
Aspergillus fumigatus
  MIC: > 16 µg/mL
Pichia kudriavzevii
  MIC: 4 µg/mL

## CN(C/C=C/c1ccccc1)Cc1cccc2ccccc12 [NAFTIFINE]
Candida tropicalis
  MIC: 2 µg/mL
Nakaseomyces glabratus
  MIC: 1 µg/mL
Candida albicans [1]
  MIC: 0.5 µg/mL
Aspergillus fumigatus
  MIC: 4 µg/mL
Candida albicans [2]
  MIC: 8 µg/mL
Candida albicans [3]
  MIC: > 16 µg/mL
Candida albicans [4]
  MIC: > 16 µg/mL
Candida albicans [5]
  Activity: Active
Candida albicans [6]
  MIC: 8 µg/mL
Pichia kudriavzevii
  MIC: 0.5 µg/mL
Candida albicans [7]
  MIC: 8 µg/mL

## CN(CC(=O)NCc1cccnc1)C(=O)/C=C/c1cccc2ccccc12
Candida tropicalis
  MIC: 0.5 µg/mL
Nakaseomyces glabratus
  MIC: 0.5 µg/mL
Candida albicans [1]
  MIC: 0.5 µg/mL
Aspergillus fumigatus
  MIC: > 16 µg/mL
Pichia kudriavzevii
  MIC: 0.25 µg/mL

## O=C(/C=C/c1ccc2c(c1)OCCO2)NCC(=O)NCc1ccncc1
Candida tropicalis
  MIC: 1 µg/mL
Nakaseomyces glabratus
  MIC: 0.5 µg/mL
Candida albicans [1]
  MIC: 0.5 µg/mL
Aspergillus fumigatus
  MIC: > 16 µg/mL
Pichia kudriavzevii
  MIC: 0.5 µg/mL

## O=C(NCc1ccncc1)C(=O)N/N=C/c1ccc2ccccc2c1
Candida tropicalis
  MIC: 0.5 µg/mL
Nakaseomyces glabratus
  MIC: 0.5 µg/mL
Candida albicans [1]
  MIC: 0.25 µg/mL
Aspergillus fumigatus
  MIC: > 16 µg/mL
Pichia kudriavzevii
  MIC: 0.25 µg/mL

## O=C(NCc1cccnc1)C(=O)N/N=C/c1ccc2c(c1)OCCO2
Candida tropicalis
  MIC: 1 µg/mL
Nakaseomyces glabratus
  MIC: 0.5 µg/mL
Candida albicans [1]
  MIC: 0.5 µg/mL
Aspergillus fumigatus
  MIC: > 16 µg/mL
Pichia kudriavzevii
  MIC: 2 µg/mL

## O=C(NCc1ccncc1)C(=O)N/N=C/c1cccc2ccccc12
[8]
  Activity: Non-Toxic
[9]
  remaining at 2 h: 86.5%
Candida tropicalis
  MIC: 0.125 µg/mL
Candida albicans [10]
  Activity: Active
Nakaseomyces glabratus
  MIC: 0.25 µg/mL
Candida albicans [11]
  Activity: Active
[12]
  Activity: Non-Toxic
Candida albicans [13]
  Activity: Active
[14]
  Activity: 117 IU/L
[15]
  remaining at 1 h: 92.3%
Candida albicans [1]
  MIC: 0.125 µg/mL
Aspergillus fumigatus
  MIC: 2 µg/mL
Candida albicans SC5314 [16]
  Activity: 11.3%
[17]
  Activity: Non-Toxic
Candida albicans SC5314 [18]
  Activity: 4.71%
Candida albicans [2]
  MIC: 8 µg/mL
Candida albicans [3]
  MIC: 4 µg/mL
Candida albicans [19]
  Activity: Active
Candida albicans [4]
  MIC: 4 µg/mL
[20]
  Activity: Non-Toxic
Candida albicans [21]
  Activity: Active
Candida albicans [22]
  Activity: Active
Candida albicans [5]
  Activity: Active
Candida albicans [23]
  Activity: Active
[24]
  Activity: Non-Toxic
Candida albicans [6]
  MIC: 4 µg/mL
Candida albicans [25]
  Activity: Active
[26]
  Activity: 112.7 IU/L
[27]
  Activity: Non-Toxic
Candida albicans SC5314 [28]
  Activity: 8.27%
Candida albicans [29]
  Activity: Active
Candida albicans [30]
  Activity: Active
Candida albicans [31]
  Activity: Active
[32]
  Activity: 7.1 mmol/L
Pichia kudriavzevii
  MIC: 0.5 µg/mL
Candida albicans [7]
  MIC: 8 µg/mL
Candida albicans SC5314 [33]
  Activity: 42.9%
Candida albicans [34]
  Activity: Active
Candida albicans SC5314 [35]
  Activity: 32.8%

## O=C(/C=C/c1ccc2c(c1)OCCO2)NC(Cn1ccnc1)C(=O)Nc1ccccc1 (stereo not given)
Candida tropicalis
  MIC: 0.25 µg/mL
Nakaseomyces glabratus
  MIC: 0.5 µg/mL
Candida albicans [1]
  MIC: 0.25 µg/mL
Aspergillus fumigatus
  MIC: > 16 µg/mL
Pichia kudriavzevii
  MIC: 1 µg/mL

## O=C(NCc1ccncc1)C(=O)N/N=C/c1ccc2c(c1)OCCO2
Candida tropicalis
  MIC: 1 µg/mL
Nakaseomyces glabratus
  MIC: 1 µg/mL
Candida albicans [1]
  MIC: 0.5 µg/mL
Aspergillus fumigatus
  MIC: 8 µg/mL
Pichia kudriavzevii
  MIC: 0.5 µg/mL

## CN(CC(=O)NCc1ccncc1)C(=O)/C=C/c1cccc2ccccc12
Candida tropicalis
  MIC: 0.25 µg/mL
Nakaseomyces glabratus
  MIC: 0.25 µg/mL
Candida albicans [1]
  MIC: 0.125 µg/mL
Aspergillus fumigatus
  MIC: 4 µg/mL
Pichia kudriavzevii
  MIC: 0.5 µg/mL

## O=C(/C=C/c1cccc2ccccc12)NCC(=O)NCc1cccnc1
Candida tropicalis
  MIC: 0.5 µg/mL
Nakaseomyces glabratus
  MIC: 1 µg/mL
Candida albicans [1]
  MIC: 0.5 µg/mL
Aspergillus fumigatus
  MIC: 8 µg/mL
Pichia kudriavzevii
  MIC: 1 µg/mL

## O=C(/C=C/c1cccc2ccccc12)NC(Cn1ccnc1)C(=O)NCc1ccccc1 (stereo not given)
Candida tropicalis
  MIC: 0.5 µg/mL
Nakaseomyces glabratus
  MIC: 0.5 µg/mL
Candida albicans [1]
  MIC: 0.5 µg/mL
Aspergillus fumigatus
  MIC: > 16 µg/mL
Pichia kudriavzevii
  MIC: 2 µg/mL
